Reference: PubChem BioAssay (NCI)
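Assay format: 96-well plates, 48-hour exposure. TGI marks complete inhibition of growth.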

Key:
Experiment in all cases: DTP human tumour cell line panel, 48 h
786-0 renal = system: 786-0 renal
A549 NSCLC = system: A549 NSCLC
ACHN renal = system: ACHN renal
BT-549 breast = system: BT-549 breast
CAKI-1 renal = system: CAKI-1 renal
CCRF-CEM leukemia = system: CCRF-CEM leukemia
COLO 205 colon = system: COLO 205 colon
DU-145 prostate = system: DU-145 prostate
EKVX NSCLC = system: EKVX NSCLC
HCC-2998 colon = system: HCC-2998 colon
HCT-116 colon = system: HCT-116 colon
HCT-15 colon = system: HCT-15 colon
HL-60(TB) leukemia = system: HL-60(TB) leukemia
HOP-62 NSCLC = system: HOP-62 NSCLC
HOP-92 NSCLC = system: HOP-92 NSCLC
HS 578T breast = system: HS 578T breast
HT29 colon = system: HT29 colon
IGROV1 ovarian = system: IGROV1 ovarian
K-562 leukemia = system: K-562 leukemia
KM12 colon = system: KM12 colon
LOX IMVI melanoma = system: LOX IMVI melanoma
M14 melanoma = system: M14 melanoma
MCF7 breast = system: MCF7 breast
MDA-MB-231 breast = system: MDA-MB-231 breast
MDA-MB-435 = system: MDA-MB-435
MDA-N = system: MDA-N
MOLT-4 leukemia = system: MOLT-4 leukemia
NCI-H226 lung = system: NCI-H226 lung
NCI-H23 lung = system: NCI-H23 lung
NCI-H460 lung = system: NCI-H460 lung
NCI-H522 lung = system: NCI-H522 lung
NCI/ADR-RES ovarian = system: NCI/ADR-RES ovarian
OVCAR-3 ovarian = system: OVCAR-3 ovarian
OVCAR-4 ovarian = system: OVCAR-4 ovarian
OVCAR-5 ovarian = system: OVCAR-5 ovarian
OVCAR-8 ovarian = system: OVCAR-8 ovarian
PC-3 prostate = system: PC-3 prostate
RPMI-8226 leukemia = system: RPMI-8226 leukemia
RXF 393 renal = system: RXF 393 renal
SF-268 CNS = system: SF-268 CNS
SF-295 CNS = system: SF-295 CNS
SF-539 CNS = system: SF-539 CNS
SK-MEL-2 melanoma = system: SK-MEL-2 melanoma
SK-MEL-28 melanoma = system: SK-MEL-28 melanoma
SK-MEL-5 melanoma = system: SK-MEL-5 melanoma
SK-OV-3 ovarian = system: SK-OV-3 ovarian
SN12C renal = system: SN12C renal
SNB-19 CNS = system: SNB-19 CNS
SNB-75 CNS = system: SNB-75 CNS
SW-620 colon = system: SW-620 colon
T-47D breast = system: T-47D breast
TK-10 renal = system: TK-10 renal
U251 CNS = system: U251 CNS
UACC-257 melanoma = system: UACC-257 melanoma
UACC-62 melanoma = system: UACC-62 melanoma
UO-31 renal = system: UO-31 renal
A498 renal = system: A498 renal
MALME-3M melanoma = system: MALME-3M melanoma

Question: Which results are given for `O=C1C(C=NC(=S)c2ccccc2)=C(O)c2ccccc21`?
Answer: TGI (786-0 renal): > 66.7 µM; TGI (A549 NSCLC): > 100 µM; TGI (ACHN renal): > 100 µM; TGI (BT-549 breast): > 94 µM; TGI (CAKI-1 renal): > 100 µM; TGI (CCRF-CEM leukemia): 53.9 µM; TGI (COLO 205 colon): > 100 µM; TGI (DU-145 prostate): > 100 µM; TGI (EKVX NSCLC): > 100 µM; TGI (HCC-2998 colon): > 100 µM; TGI (HCT-116 colon): > 100 µM; TGI (HCT-15 colon): > 100 µM; TGI (HL-60(TB) leukemia): 22 µM; TGI (HOP-62 NSCLC): > 100 µM; TGI (HOP-92 NSCLC): > 84.8 µM; TGI (HS 578T breast): > 100 µM; TGI (HT29 colon): > 100 µM; TGI (IGROV1 ovarian): > 70.5 µM; TGI (K-562 leukemia): > 100 µM; TGI (KM12 colon): > 100 µM; TGI (LOX IMVI melanoma): > 67.9 µM; TGI (M14 melanoma): > 100 µM; TGI (MCF7 breast): > 100 µM; TGI (MDA-MB-231 breast): > 100 µM; TGI (MDA-MB-435): > 100 µM; TGI (MDA-N): > 100 µM; TGI (MOLT-4 leukemia): 69.3 µM; TGI (NCI-H226 lung): > 100 µM; TGI (NCI-H23 lung): > 100 µM; TGI (NCI-H460 lung): > 100 µM; TGI (NCI-H522 lung): 50.9 µM; TGI (NCI/ADR-RES ovarian): > 100 µM; TGI (OVCAR-3 ovarian): > 100 µM; TGI (OVCAR-4 ovarian): > 100 µM; TGI (OVCAR-5 ovarian): > 100 µM; TGI (OVCAR-8 ovarian): > 100 µM; TGI (PC-3 prostate): > 100 µM; TGI (RPMI-8226 leukemia): 67.6 µM; TGI (RXF 393 renal): > 100 µM; TGI (SF-268 CNS): > 100 µM; TGI (SF-295 CNS): > 100 µM; TGI (SF-539 CNS): > 100 µM; TGI (SK-MEL-2 melanoma): > 100 µM; TGI (SK-MEL-28 melanoma): > 100 µM; TGI (SK-MEL-5 melanoma): > 100 µM; TGI (SK-OV-3 ovarian): 85.6 µM; TGI (SN12C renal): > 100 µM; TGI (SNB-19 CNS): > 100 µM; TGI (SNB-75 CNS): > 100 µM; TGI (SW-620 colon): > 100 µM; TGI (T-47D breast): > 100 µM; TGI (TK-10 renal): > 100 µM; TGI (U251 CNS): > 100 µM; TGI (UACC-257 melanoma): > 100 µM; TGI (UACC-62 melanoma): > 100 µM; TGI (UO-31 renal): > 88.9 µM

Question: What does the source list for `O=S(=O)(O)c1cc(S(=O)(=O)O)c2c(Nc3ccnc4ccccc34)ccc(S(=O)(=O)O)c2c1`?
Answer: TGI (786-0 renal): > 100 µM; TGI (A498 renal): > 100 µM; TGI (A549 NSCLC): > 100 µM; TGI (ACHN renal): > 100 µM; TGI (BT-549 breast): > 100 µM; TGI (CAKI-1 renal): > 100 µM; TGI (CCRF-CEM leukemia): > 100 µM; TGI (COLO 205 colon): > 100 µM; TGI (DU-145 prostate): > 100 µM; TGI (EKVX NSCLC): > 100 µM; TGI (HCC-2998 colon): > 100 µM; TGI (HCT-116 colon): > 100 µM; TGI (HCT-15 colon): > 100 µM; TGI (HL-60(TB) leukemia): > 100 µM; TGI (HOP-62 NSCLC): > 100 µM; TGI (HS 578T breast): > 100 µM; TGI (HT29 colon): > 100 µM; TGI (IGROV1 ovarian): > 100 µM; TGI (KM12 colon): > 100 µM; TGI (LOX IMVI melanoma): > 100 µM; TGI (M14 melanoma): > 100 µM; TGI (MALME-3M melanoma): > 100 µM; TGI (MCF7 breast): > 100 µM; TGI (MDA-MB-231 breast): > 100 µM; TGI (MDA-MB-435): > 100 µM; TGI (MDA-N): > 100 µM; TGI (MOLT-4 leukemia): > 100 µM; TGI (NCI-H226 lung): > 100 µM; TGI (NCI-H23 lung): > 100 µM; TGI (NCI-H460 lung): > 100 µM; TGI (NCI-H522 lung): > 100 µM; TGI (NCI/ADR-RES ovarian): > 100 µM; TGI (OVCAR-3 ovarian): > 100 µM; TGI (OVCAR-4 ovarian): > 100 µM; TGI (OVCAR-5 ovarian): > 100 µM; TGI (OVCAR-8 ovarian): > 100 µM; TGI (PC-3 prostate): > 100 µM; TGI (RPMI-8226 leukemia): > 100 µM; TGI (RXF 393 renal): > 100 µM; TGI (SF-268 CNS): > 100 µM; TGI (SF-295 CNS): > 100 µM; TGI (SF-539 CNS): > 100 µM; TGI (SK-MEL-2 melanoma): > 100 µM; TGI (SK-MEL-28 melanoma): > 100 µM; TGI (SK-MEL-5 melanoma): > 100 µM; TGI (SK-OV-3 ovarian): > 100 µM; TGI (SN12C renal): > 100 µM; TGI (SNB-19 CNS): > 100 µM; TGI (SNB-75 CNS): > 100 µM; TGI (SW-620 colon): > 100 µM; TGI (T-47D breast): > 100 µM; TGI (TK-10 renal): > 100 µM; TGI (U251 CNS): > 100 µM; TGI (UACC-257 melanoma): > 100 µM; TGI (UACC-62 melanoma): > 100 µM; TGI (UO-31 renal): > 100 µM

Question: With `COc1ccc(C(NS(=O)(=O)c2ccc(C)cc2)c2c(C(CBr)OC)c3ccccc3n2S(=O)(=O)c2ccccc2)cc1OC` (centres undefined) as the molecule, how does the TGI (786-0 renal) read?
Answer: > 100 µM

Question: And the TGI (A498 renal)?
Answer: > 100 µM

Question: And the TGI (A549 NSCLC)?
Answer: > 100 µM

Question: And the TGI (ACHN renal)?
Answer: > 100 µM

Question: And the TGI (BT-549 breast)?
Answer: > 100 µM

Question: And the TGI (CAKI-1 renal)?
Answer: > 100 µM

Question: What about the TGI (CCRF-CEM leukemia) of the same molecule?
Answer: > 100 µM

Question: What about the TGI (COLO 205 colon) of the same molecule?
Answer: > 100 µM

Question: And the TGI (DU-145 prostate)?
Answer: > 100 µM

Question: What about the TGI (EKVX NSCLC) of the same molecule?
Answer: > 100 µM

Question: And the TGI (HCC-2998 colon)?
Answer: > 100 µM

Question: And the TGI (HCT-116 colon)?
Answer: > 100 µM

Question: What about the TGI (HCT-15 colon) of the same molecule?
Answer: > 100 µM

Question: And the TGI (HL-60(TB) leukemia)?
Answer: > 100 µM

Question: And the TGI (HOP-62 NSCLC)?
Answer: > 100 µM

Question: What about the TGI (HOP-92 NSCLC) of the same molecule?
Answer: > 100 µM

Question: What about the TGI (HS 578T breast) of the same molecule?
Answer: > 100 µM

Question: And the TGI (HT29 colon)?
Answer: > 100 µM

Question: What about the TGI (IGROV1 ovarian) of the same molecule?
Answer: > 100 µM

Question: What about the TGI (K-562 leukemia) of the same molecule?
Answer: > 100 µM

Question: What about the TGI (KM12 colon) of the same molecule?
Answer: > 100 µM

Question: And the TGI (LOX IMVI melanoma)?
Answer: > 100 µM

Question: What about the TGI (M14 melanoma) of the same molecule?
Answer: > 100 µM

Question: And the TGI (MALME-3M melanoma)?
Answer: > 100 µM

Question: And the TGI (MCF7 breast)?
Answer: > 100 µM

Question: And the TGI (MDA-MB-231 breast)?
Answer: > 100 µM

Question: And the TGI (MDA-MB-435)?
Answer: > 100 µM

Question: And the TGI (MDA-N)?
Answer: > 100 µM

Question: What about the TGI (MOLT-4 leukemia) of the same molecule?
Answer: > 100 µM

Question: What about the TGI (NCI-H226 lung) of the same molecule?
Answer: > 100 µM

Question: And the TGI (NCI-H23 lung)?
Answer: > 100 µM

Question: And the TGI (NCI-H460 lung)?
Answer: > 100 µM

Question: And the TGI (NCI-H522 lung)?
Answer: > 100 µM

Question: And the TGI (NCI/ADR-RES ovarian)?
Answer: > 100 µM

Question: What about the TGI (OVCAR-3 ovarian) of the same molecule?
Answer: > 100 µM

Question: What about the TGI (OVCAR-4 ovarian) of the same molecule?
Answer: > 100 µM

Question: And the TGI (OVCAR-5 ovarian)?
Answer: > 100 µM

Question: And the TGI (OVCAR-8 ovarian)?
Answer: > 100 µM

Question: What about the TGI (PC-3 prostate) of the same molecule?
Answer: > 100 µM

Question: And the TGI (RXF 393 renal)?
Answer: > 100 µM

Question: And the TGI (SF-268 CNS)?
Answer: > 100 µM

Question: What about the TGI (SF-295 CNS) of the same molecule?
Answer: > 100 µM

Question: What about the TGI (SF-539 CNS) of the same molecule?
Answer: > 100 µM

Question: And the TGI (SK-MEL-2 melanoma)?
Answer: > 100 µM

Question: And the TGI (SK-MEL-28 melanoma)?
Answer: > 100 µM

Question: And the TGI (SK-MEL-5 melanoma)?
Answer: > 100 µM

Question: And the TGI (SK-OV-3 ovarian)?
Answer: > 100 µM

Question: And the TGI (SN12C renal)?
Answer: > 100 µM

Question: And the TGI (SNB-19 CNS)?
Answer: > 100 µM

Question: What about the TGI (SNB-75 CNS) of the same molecule?
Answer: > 100 µM

Question: What about the TGI (SW-620 colon) of the same molecule?
Answer: > 100 µM

Question: What about the TGI (T-47D breast) of the same molecule?
Answer: > 100 µM

Question: And the TGI (TK-10 renal)?
Answer: > 100 µM

Question: And the TGI (U251 CNS)?
Answer: > 100 µM

Question: And the TGI (UACC-257 melanoma)?
Answer: > 100 µM

Question: What about the TGI (UACC-62 melanoma) of the same molecule?
Answer: > 100 µM

Question: And the TGI (UO-31 renal)?
Answer: > 100 µM
